Laboratory results from ChEMBL document CHEMBL4483862, “Open-source discovery of chemical leads for next-generation chemoprotective antimalarials” (2018).

System: Plasmodium berghei
Experiment: Luciferase/luciferin-expressing antifolate-resistant parasites were used to infect a culture of HepG2 cells that were pre-incubated with compounds. Infected hepatocytes emit light due to the luciferase reaction. Assay results are presented as the percent inhibition of light emission compared to control. […]
Type: functional
Details: sporozoite; for IC90: read-out: LUCIFERASE INFECTION ASSAY - IC90
[1] = read-out: LUCIFERASE INFECTION ASSAY - IC50

Compound | IC90 [µM] | IC50 [1] [µM] | further results
O=C(Nc1nc2ccccn2c1C(=O)NC1CCCC1)c1ccc(Cl)cc1 | 1.21 | – | IC50 (HEPG2TOX_HILL_SLOPE 0.927, HEPG2TOX_R_SQUARED 0.795, PBLUC_HILL_SLOPE 2.2, PBLUC_R_SQUARED 0.668, read-out: LUCIFERASE INFECTION ASSAY - IC50): 0.447 µM
CCc1ccc(CN(C)C(C)C(=O)Nc2cc(S(=O)(=O)N(C)C)ccc2C)cc1 (stereo unspecified) | > 10 | 8.31 | –
COc1cc(-c2cc(-c3cc(C)c(O)c(C)c3)cnc2N)ccc1O | 3.93 | – | IC50 (HEPG2TOX_HILL_SLOPE 11.4, HEPG2TOX_R_SQUARED 0.062, PBLUC_HILL_SLOPE 8, PBLUC_R_SQUARED 0.677, read-out: LUCIFERASE INFECTION ASSAY - IC50): 2.99 µM
Cc1cnc(Nc2ncnc3ccccc23)s1 | > 10 | > 10 | –
N#Cc1c(Cl)cccc1Oc1ccc(S(=O)(=O)Oc2c(Cl)cccc2Cl)cc1 | > 7.26 | – | IC50 (PBLUC_HILL_SLOPE 2.67, PBLUC_R_SQUARED 0.0667, read-out: LUCIFERASE INFECTION ASSAY - IC50): 6.81 µM
CC(=O)c1cccc(-c2cnc3cnc(-c4cccnc4)cn23)c1 | > 10.5 | – | IC50 (PBLUC_HILL_SLOPE 3.62, PBLUC_R_SQUARED 0.754, read-out: LUCIFERASE INFECTION ASSAY - IC50): 6.77 µM
O=C(CCCC(=O)Nc1cc(C(F)(F)F)cc(C(F)(F)F)c1)Nc1cc(C(F)(F)F)cc(C(F)(F)F)c1 | > 5.95 | 1.07 | –
Fc1ccc(-c2nc3ccccc3n2-c2cc(-c3ccccc3)n[nH]2)cc1 | 5.27 | – | IC50 (PBLUC_HILL_SLOPE 1.15, 2.25, PBLUC_R_SQUARED 0.601, 0.956, read-out: LUCIFERASE INFECTION ASSAY - IC50): 1.58 µM
COc1ccc(CCn2nc(C(=O)NC3CC3)c3c2CCN(C(=O)c2cc4cc(C)ccc4[nH]2)C3)cc1 | > 6.63 | – | IC50 (FFLUC_HILL_SLOPE 11.9, FFLUC_R_SQUARED 0.277, PBLUC_HILL_SLOPE 2.4, PBLUC_R_SQUARED 0.763, read-out: LUCIFERASE INFECTION ASSAY - IC50): 2.8 µM
COc1ccc(-c2cnc3cnc(-c4ccc(C(=O)NC5CCCC5)cc4)cn23)cc1 | 7.76 | – | IC50 (PBLUC_HILL_SLOPE 11.3, PBLUC_R_SQUARED 0.296, read-out: LUCIFERASE INFECTION ASSAY - IC50): 6.39 µM
COc1cc(Cl)c(C)cc1NC(=O)Cn1c(=O)c(=O)n(Cc2ccccc2)c2ccc(Cl)cc21 | > 10 | – | IC50 (FFLUC_HILL_SLOPE 92.5, FFLUC_R_SQUARED 0.216, PBLUC_HILL_SLOPE 2.05, PBLUC_R_SQUARED 0.328, read-out: LUCIFERASE INFECTION ASSAY - IC50): 4.54 µM
COc1ncccc1CNC(=O)C1=COCCO1 | > 10 | – | IC50 (PBLUC_HILL_SLOPE 1.77, PBLUC_R_SQUARED 0.251, read-out: LUCIFERASE INFECTION ASSAY - IC50): 5.83 µM
Cc1cccc(C2CC(=O)Nc3[nH]c(-c4ccccc4)nc(=O)c32)c1 (stereo unspecified) | > 9.96 | – | IC50 (PBLUC_HILL_SLOPE 13.4, PBLUC_R_SQUARED 0.0843, read-out: LUCIFERASE INFECTION ASSAY - IC50): 9.49 µM
COc1ccc(C(=O)Nc2ccc3nc(-c4ccccc4OC)nn3c2)cc1OC | > 10 | > 10 | –
Fc1ccc2[nH]cc(CCNc3nc(Cl)nc4nc[nH]c34)c2c1 | 4.27 | – | IC50 (HEPG2TOX_HILL_SLOPE 2.14, HEPG2TOX_R_SQUARED 0.948, PBLUC_HILL_SLOPE 1.79, PBLUC_R_SQUARED 0.853, read-out: LUCIFERASE INFECTION ASSAY - IC50): 1.25 µM
O=C(Nc1ncc(Cc2ccc(Br)cc2)s1)c1ccc2n[nH]nc2c1 | 1.27 | – | IC50 (HEPG2TOX_HILL_SLOPE 1.09, HEPG2TOX_R_SQUARED 0.989, PBLUC_HILL_SLOPE 1.74, PBLUC_R_SQUARED 0.819, read-out: LUCIFERASE INFECTION ASSAY - IC50): 0.359 µM
CN1/C(=C\C(=O)C[n+]2ccc3ccccc3c2)C(C)(C)c2ccccc21 | 1.83 | 1.05 | –
CC(=N)C(C#N)c1csc(NC(=O)c2cc(-c3ccccc3)nc3c2cnn3C(C)C)n1 (stereo unspecified) | 9.99 | 6.35 | –
Cc1nnc(NC(=O)CN2C(=O)COc3ccc(Cl)cc32)s1 | > 9.74 | > 9.74 | –
FC(F)(F)c1nc2ccccc2n2c(-c3ccc(Cl)cc3)nnc12 | 3.27 | – | IC50 (HEPG2TOX_HILL_SLOPE 11.7, HEPG2TOX_R_SQUARED 0.937, PBLUC_HILL_SLOPE 49.4, PBLUC_R_SQUARED 0.195, read-out: LUCIFERASE INFECTION ASSAY - IC50): 3.13 µM
Cc1cc(C(O)=C2Sc3ccccc3C2=O)c(C)n1C | > 10 | > 10 | –
Oc1c(Cl)cc(Cl)cc1-c1ccn[nH]1 | > 14.4 | > 14.4 | –

Compound | IC90 [µM] | IC50 [1] [µM] | further results
CC1CCCC(N2CC(C(=O)Nc3nc(-c4ccccn4)cs3)CC2=O)C1C (stereo unspecified) | 3.66 | – | IC50 (HEPG2TOX_HILL_SLOPE 6.97, HEPG2TOX_R_SQUARED 0.551, PBLUC_HILL_SLOPE 16.8, PBLUC_R_SQUARED 0.476, read-out: LUCIFERASE INFECTION ASSAY - IC50): 3.21 µM
Nc1nc(C2COc3ccccc3O2)ncc1S(=O)(=O)c1ccc(Cl)cc1 (stereo unspecified) | > 8.17 | – | IC50 (PBLUC_HILL_SLOPE 11.1, PBLUC_R_SQUARED 0.295, read-out: LUCIFERASE INFECTION ASSAY - IC50): 7.39 µM
O=c1nc(Nc2cccc(C(F)(F)F)c2)[nH]nc1Cc1ccccc1 | > 9.53 | 1.23 | –
Cc1c(C)n(CCCO)c2ncn3nc(-c4cccs4)nc3c12 | > 10.1 | – | IC50 (PBLUC_HILL_SLOPE 0.662, PBLUC_R_SQUARED 0.606, read-out: LUCIFERASE INFECTION ASSAY - IC50): 4.42 µM
COc1ccc(S(=O)(=O)N2CCN(C(=O)c3sc4nc5n(c(=O)c4c3C)CCCCC5)CC2)cc1 | > 10 | > 10 | –
CCC(C)NC(=O)c1c(NC(=O)c2cc(OC)cc(OC)c2)nc2ccc(C)cn12 (stereo unspecified) | 2.79 | – | IC50 (HEPG2TOX_HILL_SLOPE 2.24, HEPG2TOX_R_SQUARED 0.668, PBLUC_HILL_SLOPE 45.5, PBLUC_R_SQUARED 0.204, read-out: LUCIFERASE INFECTION ASSAY - IC50): 2.66 µM
O=C(Cc1ccc(-c2ccccc2)cc1)NCc1cn2ccccc2n1 | > 10 | – | IC50 (PBLUC_HILL_SLOPE 15.5, PBLUC_R_SQUARED 0.301, read-out: LUCIFERASE INFECTION ASSAY - IC50): 8.96 µM
Cc1cc(C)c(C)c(S(=O)(=O)N2CCC(C(=O)Nc3cc(S(=O)(=O)Nc4ccc(Cl)cc4)ccc3N3CCOCC3)CC2)c1C | 3.69 | – | IC50 (FFLUC_HILL_SLOPE 3.74, FFLUC_R_SQUARED 0.802, PBLUC_HILL_SLOPE 15.7, PBLUC_R_SQUARED 0.403, read-out: LUCIFERASE INFECTION ASSAY - IC50): 3.21 µM
O=C(Nc1ccnn1-c1nc2ccccc2[nH]1)C(c1ccccc1)c1ccccc1 | 9.69 | 5.95 | –
O=C(OCc1ncc(-c2ccccc2)o1)c1cc([N+](=O)[O-])ccc1N1CCOCC1 | 3.4 | – | IC50 (HEPG2TOX_HILL_SLOPE 0.712, HEPG2TOX_R_SQUARED 0.947, PBLUC_HILL_SLOPE 1.1, PBLUC_R_SQUARED 0.629, read-out: LUCIFERASE INFECTION ASSAY - IC50): 0.465 µM
COc1ccccc1N(Cc1cc2ccc(C)cc2[nH]c1=O)S(=O)(=O)c1ccccc1 | > 10 | > 10 | –
N#Cc1c(N=Cc2c(O)n(-c3ccc(Br)cn3)c(=O)c3ccccc23)sc2c1CCC2 | > 10 | – | IC50 (HEPG2TOX_HILL_SLOPE 5.03, HEPG2TOX_R_SQUARED 0.905, PBLUC_HILL_SLOPE 1.74, PBLUC_R_SQUARED 0.542, read-out: LUCIFERASE INFECTION ASSAY - IC50): 6.14 µM
N#Cc1nc(=O)n(-c2ccc(OC(F)(F)F)cc2)c(N)c1/N=C/c1ccc(C(F)(F)F)cc1 | 4.82 | – | IC50 (FFLUC_HILL_SLOPE 11.8, FFLUC_R_SQUARED 0.146, HEPG2TOX_HILL_SLOPE 2.94, HEPG2TOX_R_SQUARED 0.795, PBLUC_HILL_SLOPE 2.18, PBLUC_R_SQUARED 0.738, read-out: LUCIFERASE INFECTION ASSAY - IC50): 1.76 µM
O=C(Nc1ccc(Oc2ccc3ccccc3c2)cc1)c1ccccc1 | 1.16 | – | IC50 (HEPG2TOX_HILL_SLOPE 2.3, HEPG2TOX_R_SQUARED 0.782, PBLUC_HILL_SLOPE 2.18, PBLUC_R_SQUARED 0.822, read-out: LUCIFERASE INFECTION ASSAY - IC50): 0.424 µM
COCCn1c(C(=O)OC)c(NC(=O)c2ccco2)c2cc(NCCc3ccccc3)cnc21 | > 7.14 | – | IC50 (PBLUC_HILL_SLOPE 0.526, PBLUC_R_SQUARED 0.429, read-out: LUCIFERASE INFECTION ASSAY - IC50): 4.07 µM
O=[N+]([O-])c1ccc2c(c1)nc(SCc1ccc(Cl)cc1Cl)n2-c1ccccc1 | > 10 | – | IC50 (FFLUC_HILL_SLOPE 1.41, FFLUC_R_SQUARED 0.219, read-out: LUCIFERASE INFECTION ASSAY - IC50): > 10 µM
COc1ccc(CC(N)c2csc(NC(=O)Nc3ccccc3Oc3ccccc3)n2)cc1 (stereo unspecified) | > 7.17 | > 7.17 | –
O=C(Nc1cccc(C(F)(F)F)c1)Nc1ccc2nc(-c3ccc(F)c(Cl)c3)nn2c1 | 5.2 | – | IC50 (PBLUC_HILL_SLOPE 7.54, PBLUC_R_SQUARED 0.257, read-out: LUCIFERASE INFECTION ASSAY - IC50): 3.88 µM
O=C(Nc1cccc(F)c1)Nc1ccc2nc(-c3ccoc3)nn2c1 | > 10 | – | IC50 (PBLUC_HILL_SLOPE 11.8, PBLUC_R_SQUARED 0.647, read-out: LUCIFERASE INFECTION ASSAY - IC50): 8.63 µM
CCOC(=O)c1c(C)nn(-c2ccc(NC(=O)Nc3ccc(Cl)cc3)cc2)c1C | > 7.99 | > 7.99 | –
O=C(NCCc1cccs1)N1CCc2nc(NCc3cccc(Oc4ccccc4)c3)ncc2C1 | > 6.8 | > 6.8 | –
